Reference: PMC3164098, “C-Terminal Substitution of MDM2 Interacting Peptides Modulates Binding Affinity by Distinctive Mechanisms” (PLoS ONE, 2011)
Ends that are not written are not given here.

Tests used:
[1] = biological target: T1, hexahistidine tagged MDM2 (18–125) (Homo sapiens, UniProt Q00987); experiment: Isothermal titration calorimetry (ITC) of ligands against MDM2; format: binding; conditions: PBS pH 7.4, 0.05% TWEEN20, 1% DMSO; for Kd: 10 or 20 µM MDM2 in cell
T1 construct: DNA encoding residues Q18 to N125 of HDM2; made in house; host or cells: E. coli BL21(DE3)
Method: DNA encoding residues Q18 to N125 of HDM2 were cloned as a NdeI/BamHI fragment into pET19b (Novagen). Recombinant clones carrying the correct insert were identified by DNA sequencing. Plasmid from the identified clone was introduced into E. coli BL21(DE3) and protein production in LB medium was induced with IPTG (1 mM) when the cell density reached OD600 between 0.4 and 0.6. Induced cells were grown at room temperature for 5 h, harvested, and then resuspended in buffer A (50 mM Tris pH 8.0, 10% sucrose). After cell disruption and centrifugation, supernatant was loaded onto a Ni-nitrilotriacetic acid (NTA) column and washed with 5 column volumes of 0.3 M NaCl, 50 mM Tris-HCl pH 8.0, 1 mM DTT. […] The protein was further purified by cation-exchange chromatography (Pharmacia Mono S 5/5, 1 ml/min, 50 mM Tris-HCl pH 7.0, 1 mM DTT) with a 1 M NaCl gradient.
ITC experiments were conducted in a VP-ITC Unit (MicroCal, Northampton, MA). […] All titrations were carried out in 1% DMSO. […] All peptides used were weighed out as solids and dissolved in DMSO. The stock peptide solutions were diluted to their working concentrations in the buffer used for dialysis of the protein. DMSO was carefully added to the MDM2 solution in the VP-ITC cell to buffer match it to the peptide solution. The titration experiments were performed at 20°C with an initial 2 µl injection with duration of 4 s, followed by 28 10 µl injections with a duration of 7.1 s. The spacing between each injection was 150 s. The stirring speed during the titration was 290 rpm. Data was analyzed using Microcal Origin software by fitting to a single-site binding model. Correction for the enthalpy of ligand dilution was carried out by subtracting a linear fit from the last three data points of the titration, after the interaction had reached saturation.

[2] = system: N-terminal domain of MDM2; conditions: peptide of residues 12–30 of WT p53, binding to N-terminal domain of MDM2; ref 10 (Zondlo et al.); cited from earlier work
Description: The molecular interaction of the binding of the MDM2 N-terminal domain to the p53 N-terminus (TA domain) is well understood. Several high-resolution crystal and NMR structures in complex with a variety of peptides and small molecules have been elucidated, [8]. These structural studies indicate that the residues F19, W23 and L26 of the TA domain of p53 are critical for binding to MDM2. Indeed most peptides, peptidomimetics and small molecules that have been developed have indeed emerged as a result of mimicking these interactions. However, it has been known for some time that the other ...

[3] = 293 K (20°C), single-site binding model

T1 sequence (Q00987 18-125): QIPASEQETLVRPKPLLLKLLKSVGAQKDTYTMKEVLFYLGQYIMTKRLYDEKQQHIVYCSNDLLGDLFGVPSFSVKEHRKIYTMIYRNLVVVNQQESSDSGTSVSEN

| Kd [1, 3] [nM] | Molecule | other results |
| --- | --- | --- |
| 18.8 ± 5.03 | CSCC[C@H](NC(=O)[C@H](Cc1ccccc1)NC(=O)[C@H](CCCNC(=N)N)NC(=O)[C@@H]1CCCN1C(=O)[C@@H](N)CCSC)C(=O)N[C@@H](CC(=O)O)C(=O)N[C@@H](Cc1ccc(O)cc1)C(=O)N[C@@H](Cc1c[nH]c2ccccc12)C(=O)N[C@@H](CCC(=O)O)C(=O)NCC(=O)N[C@@H](CC(C)C)C(=O)N[C@@H](CO)C(N)=O [12/1Ser] |  |
| 168 ± 9.24 | CC(C)C[C@H](NC(=O)[C@H](CC(C)C)NC(=O)[C@H](CCCCN)NC(=O)[C@H](Cc1c[nH]c2ccccc12)NC(=O)[C@H](CC(C)C)NC(=O)[C@H](CC(=O)O)NC(=O)[C@H](CO)NC(=O)[C@H](Cc1ccccc1)NC(=O)[C@@H](NC(=O)[C@H](CCC(=O)O)NC(=O)[C@@H](N)CCC(N)=O)[C@@H](C)O)C(=O)N[C@@H](CC(N)=O)C(N)=O [P53 Asn] |  |
| 112 ± 17.9 | CC(C)C[C@H](NC(=O)[C@H](CC(C)C)NC(=O)[C@H](CCCCN)NC(=O)[C@H](Cc1c[nH]c2ccccc12)NC(=O)[C@H](CC(C)C)NC(=O)[C@H](CC(=O)O)NC(=O)[C@H](CO)NC(=O)[C@H](Cc1ccccc1)NC(=O)[C@@H](NC(=O)[C@H](CCC(=O)O)NC(=O)[C@@H](N)CCC(N)=O)[C@@H](C)O)C(=O)N[C@@H](C)C(N)=O [p53 Ala] |  |
| 75.8 ± 10.4 | CC(C)C[C@H](NC(=O)[C@H](CC(C)C)NC(=O)[C@H](CCCCN)NC(=O)[C@H](Cc1c[nH]c2ccccc12)NC(=O)[C@H](CC(C)C)NC(=O)[C@H](CC(=O)O)NC(=O)[C@H](CO)NC(=O)[C@H](Cc1ccccc1)NC(=O)[C@@H](NC(=O)[C@H](CCC(=O)O)NC(=O)[C@@H](N)CCC(N)=O)[C@@H](C)O)C(=O)N[C@@H](CO)C(N)=O [p53 Ser] |  |
| 38.8 ± 7.43 | CC(C)C[C@H](NC(=O)[C@H](CC(=O)O)NC(=O)[C@H](CO)NC(=O)[C@H](Cc1ccccc1)NC(=O)[C@@H](NC(=O)[C@H](CCC(=O)O)NC(=O)[C@@H](N)CCC(N)=O)[C@@H](C)O)C(=O)N[C@@H](Cc1c[nH]c2ccccc12)C(=O)N[C@@H](CCCCN)C(=O)N[C@@H](CC(C)C)C(=O)N[C@@H](CC(C)C)C(=O)N[C@H](C(N)=O)[C@@H](C)O [p53Thr] |  |
| 47.2 ± 11.1 | MPRFMDYWEGLA-NH2 [12/1Ala] |  |
| 240 ± 53.8 | MPRFMDYWEGLN-NH2 [12/1] |  |
| 213 ± 36.6 | MPRFMDYWEGLP-NH2 [12/1Pro] |  |
| 22.9 ± 4.21 | MPRFMDYWEGLT-NH2 [12/1Thr] |  |
|  | Nutlin [Nutlin Racemic, reference compound] | ΔG ([1]; binding free energy calculated from the Kd using ΔG = −RTlnKa, 293 K): -8.97 ± 0.15 kcal/mol; ΔH ([1]; enthalpy of binding, 293 K (20°C), single-site binding model): -6.10 ± 0.16 kcal/mol; TΔS ([1]; entropy of binding, 293 K (20°C)): 2.88 kcal/mol |
|  | P27S: P27S substitution in a peptide corresponding to residues 12–30 of the WT p53 sequence (Zondlo et al.) (PPLSQETFSDLWKLLSENN; not fully specified (C-terminus); UniProt P04637 12-30, looked up, variant P27S) | fold improvement in Kd over the wild type sequence [2]: ~200 fold |
